Molecular target: T1, Gamma-aminobutyric acid receptor subunit alpha-3 (Homo sapiens, UniProt P34903)
T1 sequence (P34903 whole entry): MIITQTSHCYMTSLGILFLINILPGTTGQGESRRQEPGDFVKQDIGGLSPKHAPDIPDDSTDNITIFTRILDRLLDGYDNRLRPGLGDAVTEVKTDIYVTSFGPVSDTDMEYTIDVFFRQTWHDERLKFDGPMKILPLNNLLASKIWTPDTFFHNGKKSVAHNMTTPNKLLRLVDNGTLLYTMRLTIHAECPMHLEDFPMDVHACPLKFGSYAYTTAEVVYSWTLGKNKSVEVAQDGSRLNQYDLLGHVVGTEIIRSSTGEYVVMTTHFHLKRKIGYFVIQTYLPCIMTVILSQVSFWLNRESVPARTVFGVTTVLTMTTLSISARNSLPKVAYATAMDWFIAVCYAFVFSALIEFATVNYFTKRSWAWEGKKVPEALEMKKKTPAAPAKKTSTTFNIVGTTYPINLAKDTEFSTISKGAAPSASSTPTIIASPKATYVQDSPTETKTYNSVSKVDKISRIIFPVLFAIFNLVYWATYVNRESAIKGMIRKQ

Structure (SMILES)	Ki [µM]
O=c1[nH][nH]c2c1CCNC2 [THIP, Aza-]	> 10
O=c1o[nH]c2c1CCNC2 [NSC_130546]	7.9

— BindingDB's records for doi:10.2174/1568007033482805 (University of Sydney, 2003)
